Assay results reported in patent US12366579B2, “Sulfur-heterocycle exchange chemistry and uses thereof” (University of Virginia Patent Foundation, priority 2019, dated 2025).

Columns and labels:
[1] = HPLC assay, p-cresol reactivity against a sulfonyl probe mixture; type: physicochemical; conditions: TMG 2.2 equivalents, 0° C.
Protocol: The following reagents were prepared and kept at 0° C. prior to use: 0.1 M solution of caffeine in acetonitrile (ACN), 1.0 M solution of n-butylamine, p-cresol, tetramethylguanidine (TMG), acetic acid in ACN, and 10 mM solution of the probes in a mixture of DMF-ACN (v/v=10:90) are made.
(i) p-Cresol reactivity against a probe mixture: A solution of p-cresol (16.5 μmol, 3.3 eq) was premixed with 1.1, 2.2, or 3.3 eq of TMG. To initiate the reaction, the p-cresol/TMG solution was added to a sulfonyl probe mixture of HHS-475/HHS-482/HHS-SF-1 (500 μL, 5 μmol, 1.0 eq each) and the reaction was kept at 0° C. The reaction progress was monitored by taking out a 50.0 μL aliquot of the reaction mixture at various time points followed by addition of a 10 μL quenching solution of acetic acid (0.5 M final, 5.0 μmol) and the internal caffeine standard (0.05 M final, 0.5 μmol). Sample (1.0 μL) was injected and analyzed by reverse-phase HPLC on a Shimadzu 1100 Series spectrometer (Shimadzu, Kyoto, Japan) with UV detection at 254 nm. Reaction progress was evaluated by monitoring consumption of sulfonyl probes because all probes generate a shared p-cresol and n-butylamine product. Chromatographic separation was performed using a Phenomenex Kinetex C18 column (2.6 μm, 50 mm×4.6 mm, Phemonenex, Torrance, California, United States of America). […]

[2] = tested on: HEK293T soluble proteomes; experiment: LC-MS chemical proteomics of probe-modified sites in cell proteomes; type: binding, human
Protocol: Proteomes were diluted to 2.3 mg/mL in PBS and sample aliquots (432 μL) were treated with sulfonyl-triazole or -fluoride probes at the indicated concentrations (5 μL, 100× stock in DMSO), mixed gently and incubated for 1 h at room temperature. Probe-modified proteomes were subjected to CuAAC conjugation to desthiobiotin-PEG3-azide (10 μL of 10 mM stock in DMSO; final concentration of 200 μM) using TCEP (10 μL of fresh 50 mM stock in water; 1 mM final concentration), TBTA ligand (33 μL of a 1.7 mM 4:1 t-butanol/DMSO stock, 100 μM final concentration), and CuSO4 (10 μL of 50 mM stock, 1 mM final concentration). Samples were mixed by vortexing and then incubated for 1 h at room temperature. Excess reagents were removed by chloroform-methanol extraction as previously described^51. Protein pellets were re-suspended in 500 μL of 6M urea/25 mM ammonium bicarbonate followed by DTT reduction and IAA alkylation as previously described^5. Excess reagents were removed by chloroform/methanol extraction as described above, and the protein pellet was re-suspended in 500 μL of 25 mM ammonium bicarbonate and then digested to peptides using trypsin/Lys-C (7.5 μg in 15 μL of ammonium bicarbonate, sequencing grade from Promega, Madison, Wisconsin, United States of America) was added to the mixture and incubated for 3 hrs at 37° C. Probe-modified peptides were enriched by avidin affinity chromatography, eluted, and prepared for LC-MS analysis as previously described^51.
A top 10 data-dependent acquisition MS method was used.
Sulfonyl-probe modifications of tyrosine, lysine, and other amino acids were included as a variable (common) modification of +635.27374 Da. […] A Byonic score of 300 was applied for a more inclusive initial evaluation of the search results and thereby consider more possible probe-modified sites. MS1 and MS2 spectra corresponding to the highest-scoring tyrosine- and lysine (internal or non-C terminal)-modified sequences (˜50-100 peptides) were manually verified. […] Distinct peptides containing probe-modified amino acid residues (termed sites) were determined by identifying all unique razor protein and site combinations across all of the proteomes tested.
To compare amino acid residues modified by sulfonyl probes, protein and peptide identifications were accomplished as described above with variable (common) modification of +635.27374 Da on the following amino acid residues: cysteine, aspartic acid, glutamic acid, histidine, lysine, methionine, asparagine, glutamine, arginine, serine, threonine, tryptophan, and tyrosine. For these amino acid comparisons, carbamidomethylation (+57.021464 Da) of cysteines was searched as a variable/common modification to allow for the potential of probe modification on cysteines. Comparisons of probe-modified sites across all probes and cell lines tested were performed using the R package ggplot2 (online at tidyverse.org). Venn diagrams for comparisons were generated using the VennDiagram R package^52.
Proteomes were digested with trypsin protease and desthiobiotin-modified peptides enriched by avidin affinity chromatography, released, and analyzed by high-resolution liquid chromatography-mass spectrometry (LC-MS). Probe-modified peptide-spectrum matches (PSMs) that met a quality control confidence criteria of ≥300 Byonic score^31 and ≤5 ppm mass accuracy were selected for further manual evaluation.

[3] = target: T1, recombinant GSTP1 lysates (Homo sapiens, UniProt P09211); experiment: GSTP1 biochemical substrate assay (GSH conjugation to BDNB); conditions: inhibitor 30 min at 37° C.; n=3; read-out: IC50, in vitro potency against GSTP1 by GSH substrate assay
T1 construct: FLAG (C); host or cells: HEK293T, transient transfection; soluble proteome used unpurified
Protocol: GSTP1 Biochemical Substrate Assay
Recombinant GSTP1-HEK293T soluble cell proteomes were diluted to 1 mg ml^−1 in assay buffer (100 mM NaH2PO4, pH 7.0). Samples were treated with inhibitor at indicated concentrations for 30 min at 37° C. GSH stock solution (250 mM in water) was diluted to 4 mM in assay buffer and 25 μl of diluted GSH solution was added to each sample. A substrate stock solution of 75 mM 1-bromo-2,4-dinitrobenzene […] in ethanol was diluted to 2 mM in assay buffer. Samples (25 μl) were aliquoted into a 96-well plate and spun briefly via centrifuge. Next, 50 μl of 2 mM BDNB was added to each well and the reaction was monitored in kinetic mode by measuring absorbance at 340 nm for 10 min on a BMG Labtech CLARIOstar plate reader (BMG Labtech, Cary, North Carolina, United States of America).

human GSTP1 (hGSTP1) = target: T2, human GSTP1 (hGSTP1) (Homo sapiens, UniProt P09211); experiment: Gel-based competitive chemical proteomic screen with HHS-482, recombinant hGSTP1-HEK293T soluble proteomes; type: binding; conditions: fragment 50 μM, 30 min, 37° C.
T2 construct: FLAG (C); host or cells: HEK293T, transient transfection; soluble proteome used unpurified
Protocol: Gel-Based Chemical Proteomic Assay
Cell pellets were lysed in PBS and fractionated (100,000×g, 45 min, 4° C.) to generate soluble and membrane fractions. Protein concentrations were determined using Bio-Rad DC protein assay (Bio-Rad Laboratories, Inc., Hercules, California, United States of America), and adjusted to 1 mgml^−1 in PBS. Proteome samples (49 μl aliquots) were treated with DMSO vehicle or indicated concentration of SuTEx fragment (1 μL, 50× stock in DMSO) for 30 min at 37° C. Samples were then treated with HHS-482 probe (1 μL, 2.5 mM stock in DMSO) for 30 min at 37° C. Probe labeled samples were conjugated to rhodamine-azide (1 μL, 1.25 mM stock; final concentration of 25 μM) by copper-catalyzed azide-alkyne cycloadditions (CuAAC) for 1 h at room temperature followed by SDS-PAGE and in-gel fluorescence scanning as previously described^57.

GSTP1 Y8 = target: T3, GSTP1 Y8 (Homo sapiens, UniProt P09211); experiment: Quantitative chemical proteomics of live SILAC DM93 cells treated with SuTEx fragments; type: cell-based
T3 construct: endogenous in cells; host or cells: DM93 melanoma cells (SILAC)
Protocol: Live Cell Evaluation of Sulfonyl-Triazole Fragments
Cells grown to ˜90% confluency in 10 cm plates were treated with DMSO vehicle or SuTEx fragment (10 μl of 1,000× stock) in serum-free media for the indicated concentrations and times at 37° C. with 5% CO2. After treatment, cells were washed with cold PBS twice before collection and preparation for gel-based chemical proteomic evaluation as described above. For LC-MS studies, protein concentrations were normalized to 2.3 mg ml^−1 and 432 μl (for 1 mg final protein amount) were used for sample preparation as detailed below.
(§1) Heavy and light proteomes (432 μl of each) were diluted to 2.3 mg ml^−1 in PBS and sample aliquots (432 μl) were treated with SuTEx fragment at the indicated concentrations (5 μl, 100× stock in DMSO), mixed gently and incubated for 30 min at 37° C. Samples were then treated with HHS-482 (5 μL, 5 mM stock in DMSO) for 30 min at 37° C. Probe-modified proteomes were conjugated to desthiobiotin-PEG3-azide followed by enrichment of probe-modified peptides for nano-electrospray ionization-LC-MS/MS analyses as previously described^57.
Next, SILAC DM93 cells were treated with JWB152 or JWB198 to determine whether these SuTEx fragments could ligand Y8 of endogenous GSTP1 in living systems (50 μM compound, 1.5 hr, 37° C.). Cells were pretreated with DMSO vehicle or SuTEx fragments followed by cells lysis, HHS-482 labeling of proteomes, and quantitative chemical proteomics.

DM93 soluble proteomes = experiment: Proteome-wide competitive chemical proteomics of SuTEx fragments vs HHS-482; type: binding, human; conditions: fragment 50 μM, 30 min, 37° C.
Protocol: as §1
The chemical proteomic method for functional tyrosine profiling^72 was tailored to investigate AG/LG effects on SuTEx fragment reactivity in complex proteomes. In brief, isotopically light and heavy soluble proteomes from DM93 melanoma cells cultured by stable isotopic labeling by amino acids in cell culture (SILAC^80) media were used for quantitative liquid chromatography-mass spectrometry (LC-MS) studies. Light and heavy DM93 proteomes were treated with dimethyl sulfoxide (DMSO) vehicle or SuTEx fragment (50 μM, 30 min, 37° C.), respectively, followed by labeling with the tyrosine-reactive probe HHS-482 described hereinabove (50 μM, 30 min, 37° C.) and copper-catalyzed azide-alkyne cycloaddition (CuAAC) conjugation of a desthiobiotin-azide enrichment tag. Proteomes were digested with trypsin protease, HHS-482-modified peptides enriched by avidin chromatography and analyzed by high-resolution LC-MS/MS and bioinformatics as described hereinabove.
To evaluate substituent effects on proteome activity, reactivity profiles of each respective SuTEx fragment were compared across >1500 total distinct HHS-482-modified tyrosine sites from >650 detected proteins. Fragments were screened across independent biological replicates (n=2-3) and high-quality tyrosine site annotations were identified by detection in at least a single biological replicate from each fragment dataset, probe-specific enrichment (HHS-482 probe/DMSO SILAC ratio (SR)>5), and quality control confidence criteria of ≥300 Byonic score^31, […] protein false discovery rate (FDR), and ≤5 ppm mass accuracy in order to minimize the potential for false positives^72. SILAC ratios (SR) from competitive studies (Light-DMSO/Heavy-fragment) were used to identify fragment-competed tyrosine residues as sites showing >75% reduction in enrichment by HHS-482 compared with DMSO vehicle control (i.e. liganded tyrosines, SR>4). In total, 305 liganded tyrosines on 213 distinct proteins were identified, corresponding to ˜30% and ˜44% of total quantified tyrosines and proteins, respectively. […]

T3 sequence (P09211 whole entry, the tested form may be a part): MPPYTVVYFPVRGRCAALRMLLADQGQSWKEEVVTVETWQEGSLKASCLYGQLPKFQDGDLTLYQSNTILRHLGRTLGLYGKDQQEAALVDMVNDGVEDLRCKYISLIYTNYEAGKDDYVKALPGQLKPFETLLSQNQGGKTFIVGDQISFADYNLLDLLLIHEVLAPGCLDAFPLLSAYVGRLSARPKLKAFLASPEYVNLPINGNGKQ
T2 sequence (P09211 whole entry, the tested form may be a part): as above
T1 sequence (P09211 whole entry): as the sequence (P09211 whole entry, the tested form may be a part) above

Row | IC50 [3] [µM] | blockade of HHS-482 labeling of native GSTP1 Y8 in live cells (GSTP1 Y8; 50 μM compound, 1.5 hr, 37° C.) [%] | SILAC ratio (SR) at other GSTP1 probe-modified sites (GSTP1 Y8; Y50, Y64, Y80, Y119, and Y199, 50 μM) | Compound | time to consumption of probe by p-cresol [1] [min] | fold reduction in total number of modified sites compared with HHS-465 and HHS-475 [2] [fold] | tyrosine specificity, Y/K ratio of modified sites ([2]; LC-MS chemical proteomics, FIG. 4A) | block of HHS-482 labeling of GSTP1 (human GSTP1 (hGSTP1)) | liganded tyrosine frequency (SR>4) (DM93 soluble proteomes) [%]
1 | – | – | – | C#CCNC(=O)c1ccc(S(=O)(=O)F)cc1 [HHS-SF-1, 4-(Prop-2-yn-1-ylcarbamoyl)benzenesulfonyl fluoride, reference compound] | > 90 | ~4 | 2.3 | – | –
2 | 16 | ~70 | ~1 | O=S(=O)(c1ccc2ccccc2c1)n1cnc(-c2ccncc2)n1 [JWB198, 4-(1-(Naphthalen-2-ylsulfonyl)-1H-1,2,4-triazol-3-yl)pyridine] | – | – | – | block HHS-482 labeling to levels comparable with Y8F mutant | 1.3
